Entries after “also recorded” stand apart in the source; their conditions may differ.
Tested on: zebrafish larvae
Assay: Light- and Optovin-induced motor response assay
Type: in vivo, zebrafish (Danio rerio)
Settings: 10 μM optovin, wild-type zebrafish, pulsed violet light
Description: Light- and Optovin-induced motor response assay. Zebrafish larvae at 3 dpf were arrayed in 96-well plates and treated with 10 μM optovin (Fisher Scientific, cat #490110) in a total volume of 200 μL E3 media. Treated larvae were incubated at […] for 1 h in dark. […] Movement of the larvae was tracked and quantitated following 5×1s pulse of violet light after 10 s interval in the dark.
Identifying the protein targets of small molecules remains one of the major challenges in chemical biology and pharmacology. Herein it was hypothesized that MIC-Drop could be used to identify the targets of small molecules that result in complex behavioral phenotypes in the zebrafish. As proof-of-principle, optovin was utilized, a small molecule agonist of the trpa1b channel that allows photo-activatable behavioral modifications in zebrafish. Droplets targeting the trpa1b channel were spiked into a collection of droplets containing scrambled gRNAs in a 1:20 ratio (FIG. 7B). Droplet-injected embryos were arrayed into 96-well plates, treated with optovin and exposed to violet light flashes while simultaneously recording embryo movement. […] Thus, the MIC-Drop platform was able to be used to identify the target of optovin from among a library of non-target candidates.

Cc1cc(/C=C2/SC(=S)NC2=O)c(C)n1-c1cccnc1 [optovin]
motor response of zebrafish after treatment: light-dependent motor response; also recorded: light-dependent motion response
